Active and inactive are the calls of the source. No cut-off for these calls is given here.
What was measured:
[1] = test system: CCRF-CEM; assay: Induction of apoptosis in human CEM cells assessed as cleavage of PARP at 5 to 10 uM after 24 hrs by Western blot analysis relative to untreated control; format: functional, cell-based
[2] = test system: CCRF-CEM; assay: Induction of apoptosis in human CEM cells assessed as increase in Bcl-2 protein level after 24 hrs by Western blot analysis relative to untreated control; format: functional, cell-based
[3] = test system: CCRF-CEM; assay: Induction of apoptosis in human CEM cells assessed as effect on […] protein expression at 5 to 10 uM after 24 hrs by Western blot analysis relative to untreated control; format: functional, cell-based
[4] = test system: CCRF-CEM; assay: Induction of apoptosis in human CEM cells assessed as effect on retinoblastoma protein expression at 5 to 10 uM after 24 hrs by Western blot analysis relative to untreated control; format: functional, cell-based
[5] = test system: CCRF-CEM; assay: Induction of apoptosis in human CEM cells assessed as accumulation of caspase-3 after 24 hrs by Western blot analysis relative to untreated control; format: functional, cell-based
[6] = test system: CCRF-CEM; assay: Induction of apoptosis in human CEM cells assessed as increase in caspase-7 activity using Ac-DEVD-AMC as a substrate at 7.5 uM after 24 hrs by fluorescence microplate reader assay relative to untreated control; format: functional
[7] = test system: CCRF-CEM; assay: Induction of apoptosis in human CEM cells assessed as increase in caspase-7 activity using Ac-DEVD-AMC as a substrate at 10 uM after 24 hrs by fluorescence microplate reader assay relative to untreated control; format: functional
[8] = test system: CCRF-CEM; assay: Cytotoxicity against human CEM cells assessed as viable cells after 72 hrs by calcein AM assay; format: functional, cell-based
[9] = test system: MCF7; assay: Cytotoxicity against human MCF7 cells assessed as viable cells after 72 hrs by calcein AM assay; format: functional, cell-based; conditions: MCF7, 72 h
[10] = test system: G-361; assay: Cytotoxicity against human G361 cells assessed as viable cells after 72 hrs by calcein AM assay; format: functional, cell-based; conditions: G-361, 72 h
[11] = test system: HeLa; assay: Cytotoxicity against human HeLa cells assessed as viable cells after 72 hrs by calcein AM assay; format: functional, cell-based
[12] = test system: HOS; assay: Cytotoxicity against human HOS cells assessed as viable cells after 72 hrs by calcein AM assay; format: functional, cell-based
[13] = test system: A549; assay: Cytotoxicity against human A549 cells assessed as viable cells after 72 hrs by calcein AM assay; format: functional, cell-based; conditions: A549, 72 h
[14] = Cytotoxicity against human T98 cells assessed as viable cells after 72 hrs by calcein AM assay; format: functional, cell-based; conditions: T98, 72 h
[15] = test system: HCT-116; assay: Cytotoxicity against human HCT116 assessed as viable cells after 72 hrs by calcein AM assay; format: functional, cell-based; conditions: HCT-116, 72 h
[16] = test system: BJ; assay: Cytotoxicity against human BJ cells assessed as viable cells after 72 hrs by calcein AM assay; format: cell-based
[17] = test system: CCRF-CEM; assay: Induction of cell cycle arrest in human CEM cells assessed as increase in accumulation of cells at S-phase after 24 hrs by flow cytometric analysis relative to untreated control; format: functional, cell-based
[18] = test system: CCRF-CEM; assay: Induction of cell cycle arrest in human CEM cells assessed as increase in accumulation of cells at G2/M-phase after 24 hrs by flow cytometric analysis relative to untreated control; format: functional, cell-based
[19] = test system: CCRF-CEM; assay: Induction of cell cycle arrest in human CEM cells assessed as reduction in accumulation of cells at G0/G1-phase after 24 hrs by flow cytometric analysis relative to untreated control; format: functional, cell-based
[20] = test system: CCRF-CEM; assay: Induction of apoptosis in human CEM cells assessed as increase in amount of DNA at subG1-phase after 24 hrs by flow cytometric analysis relative to untreated control; format: functional, cell-based
[21] = test system: CCRF-CEM; assay: Induction of apoptosis in human CEM cells assessed as increase in caspase-3 activity using Ac-DEVD-AMC as a substrate at 7.5 uM after 24 hrs by fluorescence microplate reader assay relative to untreated control; format: functional
[22] = test system: CCRF-CEM; assay: Induction of apoptosis in human CEM cells assessed as increase in caspase-3 activity using Ac-DEVD-AMC as a substrate at 10 uM after 24 hrs by fluorescence microplate reader assay relative to untreated control; format: functional
[23] = test system: CCRF-CEM; assay: Induction of apoptosis in human CEM cells assessed as increase in caspase-3 activity using Ac-DEVD-AMC as a substrate at 0.25 uM after 24 hrs by fluorescence microplate reader assay relative to untreated control; format: functional
[24] = test system: CCRF-CEM; assay: Induction of apoptosis in human CEM cells assessed as increase in caspase-3 activity using Ac-DEVD-AMC as a substrate at 0.5 uM after 24 hrs by fluorescence microplate reader assay relative to untreated control; format: functional
[25] = test system: CCRF-CEM; assay: Induction of apoptosis in human CEM cells assessed as cleavage of PARP at 0.1 to 0.5 uM after 24 hrs by Western blot analysis relative to untreated control; format: functional, cell-based
[26] = test system: CCRF-CEM; assay: Induction of apoptosis in human CEM cells assessed as effect on […] protein expression at 0.1 to 0.5 uM after 24 hrs by Western blot analysis relative to untreated control; format: functional, cell-based
[27] = test system: CCRF-CEM; assay: Induction of apoptosis in human CEM cells assessed as effect on retinoblastoma protein expression at 0.1 to 0.5 uM after 24 hrs by Western blot analysis relative to untreated control; format: functional, cell-based
[28] = test system: CCRF-CEM; assay: Induction of apoptosis in human CEM cells assessed as increase in caspase-7 activity using Ac-DEVD-AMC as a substrate at 0.25 uM after 24 hrs by fluorescence microplate reader assay relative to untreated control; format: functional
[29] = test system: CCRF-CEM; assay: Induction of apoptosis in human CEM cells assessed as increase in caspase-7 activity using Ac-DEVD-AMC as a substrate at 0.5 uM after 24 hrs by fluorescence microplate reader assay relative to untreated control; format: functional
[30] = test system: CCRF-CEM; assay: Induction of apoptosis in human CEM cells assessed as increase in caspase-3 activity using Ac-DEVD-AMC as a substrate at 1 uM after 24 hrs by fluorescence microplate reader assay relative to untreated control; format: functional
[31] = test system: CCRF-CEM; assay: Induction of apoptosis in human CEM cells assessed as increase in caspase-3 activity using Ac-DEVD-AMC as a substrate at 2 uM after 24 hrs by fluorescence microplate reader assay relative to untreated control; format: functional
[32] = test system: CCRF-CEM; assay: Induction of apoptosis in human CEM cells assessed as increase in caspase-3 activity using Ac-DEVD-AMC as a substrate at 5 uM after 24 hrs by fluorescence microplate reader assay relative to untreated control; format: functional
[33] = test system: CCRF-CEM; assay: Induction of apoptosis in human CEM cells assessed as cleavage of PARP at 1 to 5 uM after 24 hrs by Western blot analysis relative to untreated control; format: functional, cell-based
[34] = test system: CCRF-CEM; assay: Induction of apoptosis in human CEM cells assessed as effect on […] protein expression at 1 to 5 uM after 24 hrs by Western blot analysis relative to untreated control; format: functional, cell-based
[35] = test system: CCRF-CEM; assay: Induction of apoptosis in human CEM cells assessed as effect on retinoblastoma protein expression at 1 to 5 uM after 24 hrs by Western blot analysis relative to untreated control; format: functional, cell-based
[36] = test system: CCRF-CEM; assay: Induction of apoptosis in human CEM cells assessed as increase in caspase-7 activity using Ac-DEVD-AMC as a substrate at 1 uM after 24 hrs by fluorescence microplate reader assay relative to untreated control; format: functional
[37] = test system: CCRF-CEM; assay: Induction of apoptosis in human CEM cells assessed as increase in caspase-7 activity using Ac-DEVD-AMC as a substrate at 2 uM after 24 hrs by fluorescence microplate reader assay relative to untreated control; format: functional
[38] = test system: CCRF-CEM; assay: Induction of apoptosis in human CEM cells assessed as increase in caspase-7 activity using Ac-DEVD-AMC as a substrate at 5 uM after 24 hrs by fluorescence microplate reader assay relative to untreated control; format: functional

SMILES	Activity [2]	Activity [5]	IC50 [8]	IC50 [9]	IC50 [10]	IC50 [11]	IC50 [12]	IC50 [13]	IC50 [14]	IC50 [15]	IC50 [16]	Activity [17]	Activity [18]	Activity [19]	Activity [20]	also measured
C/C=C/C(=O)OC[C@@H](C)[C@@]1(O)[C@@H](O[C@@H]2OC[C@H](O)[C@H](O[C@@H]3OC[C@@H](O)[C@H](O)[C@H]3OC(=O)c3ccc(OC)cc3)[C@H]2OC(C)=O)C[C@H]2[C@@H]3CC=C4C[C@@H](O)CC[C@]4(C)[C@H]3CC[C@@]21C	Dose-dependent effect	Dose-dependent effect	340 nM	840 nM	890 nM	1940 nM	> 50000 nM	550 nM	940 nM	> 50000 nM	230 nM	Dose-dependent effect	Dose-dependent effect	Dose-dependent effect	Active	Activity [1]: Active; Activity [3]: inactive; Activity [4]: inactive; fold change (FC) [6]: 3; fold change (FC) [7]: 3; fold change (FC) [21]: 3; fold change (FC) [22]: 3
C=CCCCCCCCCC(=O)OC[C@@H](C)[C@@]1(O)[C@@H](O[C@@H]2OC[C@H](O)[C@H](O[C@@H]3OC[C@@H](O)[C@H](O)[C@H]3OC(=O)c3ccc(OC)cc3)[C@H]2OC(C)=O)C[C@H]2[C@@H]3CC=C4C[C@@H](O)CC[C@]4(C)[C@H]3CC[C@@]21C	–	Dose-dependent effect	6.1 nM	29 nM	6.7 nM	103 nM	1940 nM	600 nM	7 nM	2600 nM	3 nM	Dose-dependent effect	Dose-dependent effect	Dose-dependent effect	–	fold change (FC) [23]: 2.5; fold change (FC) [24]: 2.5; Activity [25]: Active; Activity [26]: inactive; Activity [27]: inactive; fold change (FC) [28]: 2.5; fold change (FC) [29]: 2.5
COc1ccc(C(=O)OC[C@@H](C)[C@@]2(O)[C@@H](O[C@@H]3OC[C@H](O)[C@H](O[C@@H]4OC[C@@H](O)[C@H](O)[C@H]4OC(=O)c4ccc(OC)cc4)[C@H]3OC(C)=O)C[C@H]3[C@@H]4CC=C5C[C@@H](O)CC[C@]5(C)[C@H]4CC[C@@]32C)cc1	Dose-dependent effect	Dose-dependent effect	57 nM	410 nM	170 nM	340 nM	5400 nM	570 nM	55 nM	5000 nM	39 nM	Dose-dependent effect	Dose-dependent effect	Dose-dependent effect	Active	fold change (FC) [30]: 2.1; fold change (FC) [31]: 1.7; fold change (FC) [32]: 1.8; Activity [33]: Active; Activity [34]: inactive; Activity [35]: inactive; fold change (FC) [36]: 2.1; fold change (FC) [37]: 1.7; fold change (FC) [38]: 1.8

From ChEMBL document CHEMBL1773000, “Synthesis and biological activity of 22-deoxo-23-oxa analogues of saponin OSW-1” (J Med Chem, 2011)
